# Laboratory results taken from patent publication US11179380B2, “Compounds and compositions for use in treating psoriasis” (SOLVOTRIN THERAPEUTICS LTD, priority 2017, dated 2021).
# How the values were obtained:
# Aldara-treated mice = assay: Aldara-induced model of psoriasis in mice, clinical scoring (PASI); assay type: in vivo, mice (C57BL/6J)
# Protocol: Specific Pathogen-Free female C57BL/6J strain mice, 6-8 weeks of age, were obtained from a commercial supplier and bred in-house (JAX, Charles River). Mice were fed irradiated diet and housed in individually ventilated cages (Tecniplast, UK) under positive pressure. All animal experiments were performed in compliance with the Health Products Regulatory Authority and approved by the Trinity College Dublin's BioResources ethical review board.
# The Aldara-induced model of psoriasis was used (Flutter and Nestle, 2013; Morwietz, 2015; Russell et al., 2013; van der Fits et al., 2009). The dorsal skin of mice was shaved and depilated on day −1. Mice were that were in the telogen phase (resting phase) of the hair cycle were chosen for experiments. Mice with visual skin damage from shaving were excluded. Mice were then randomly divided into groups for treatment with topical application of vehicle (white petroleum jelly) or Solvotrin test compounds, prepared in white petroleum jelly. On day 0, mice were scored for disease signs, as per below. After which 62.5 mg of Aldara™ cream (5% Imiquimod; MEDA Pharmaceuticals) was applied to a defined area of the shaved dorsal skin surface. Thirty minutes after the Aldara application, test compounds or vehicle was applied to the dorsal flank, to cover the entire Aldara-challenged surface, with an even layer of the white petroleum. This process was repeated for a further 5 days. Mice were scored daily. On day 6 the mice were euthanized for tissue collection.
# The skin of mice was scored for signs of psoriasis-like inflammation for a total of 7 days, (i.e. days 0-6), as described (van der Fits et al., 2009). Mice were scored according to 3 parameters: erythema (the redness of skin); thickening of the skin; and scaling (dryness and flaking of the skin). For each parameter, the mice were scored on a scale from 0-4. Mice with no pathology were scored 0. Mice with mild pathology scored 1. […] The total, or Psoriasis Area and Severity Index (PASI), score was the cumulative score of all three parameters. Therefore for each mouse studied the PASI score can range between 0 to 12.
# Power calculations on data from previous studies have shown that a sample size of at least 6 will detect significant difference (P<0.05) in PASI scores between groups. ANOVA and Dunnett Multiple Comparison Test determined statistical differences between multiple groups. Two tailed Student's t-test was used to compare statistical differences between two groups.
# Unless otherwise specified percentage concentration of a test compound in a composition refers to the weight percent of said test compound in the composition. For example, application of 2% compound X, means application of a composition comprising 2 weight percent of compound X.
# normal healthy skin = assay: Assessment of erythema and itchiness after topical application to shaved forearm; assay type: in vivo
# Protocol: Test article dispersed in petroleum jelly was applied to a 2×2 cm patch of shaved forearm (n=3). At specified time intervals the degree of erythema was recorded by blinded observers on a scale of 1-4 (n=3). Itchiness was observed by scratching behaviour also by blinded observers on a scale of 1-4. The time course of erythema resolution was recorded at 30 minute intervals.
# Primary human DC = assay: Cytokine concentrations in LPS-stimulated monocyte-derived dendritic cells, ELISA; assay type: cell-based; conditions: LPS 24 hours
# Protocol: Primary human DC were produced from CD14+ monocytes isolated from healthy human PBMC via magnetic cell sorting. Monocyte-derived DC were pre-treated with test compounds or a vehicle control for 6 hours prior to stimulation by LPS for 24 hours. Cytokine concentrations in cell supernatants were determined by ELISA (eBiosciences).
# [1] = system: Peripheral Blood Mononuclear Cells (PBMCs); assay: Cytokine-expressing cells in stimulated PBMC (anti-CD3, PMA and ionomycin), flow cytometry; assay type: cell-based, human
# Protocol: PBMC were isolated from leukocyte-enriched buffy coats obtained from anonymous healthy donors with consent from the Irish Blood Transfusion Service, St James' Hospital, Dublin, Ireland. PBMC were pre-treated with test compounds or a vehicle control at the indicated concentrations for 6 hours prior to stimulation by anti-CD3 for 4 days and re-stimulated with PMA and ionomycin for 6 hours. Thereafter cells were counted using flow cytometry.
# physchem = conditions: for Rm: calculated from Rf
# Protocol: The partition coefficient (P) is used to describe the lipophilicity of a drug. It is defined as the ratio of equilibrium concentrations of a drug in an organic phase (Corg) and an aqueous phase (Caq).
# Most commonly the organic solvent is n-octanol and the other solvent is water. Hydrophobic molecules will have a high P value while hydrophilic molecules will have a low P value.
# Rm values were calculated from Rf values that were obtained at three different mobile phase compositions (40, 50 and 60% MeOH in water).
# The Rm value was calculated using the following equation: […]
# The theoretical Rm value at 0% organic modifier was calculated by extrapolating from the calibration curves that were obtained. These values were then correlated to the literature log P of two reference compounds (methyl benzoate and paracetamol).
# [2] = activated T-cells, various concentrations
compound,measurement,setting,value
"CC(=O)Oc1ccccc1C(=O)O[C@H]1COC2C1OC[C@H]2OC(=O)c1cccnc1 (stereo partly drawn) [ST0702, Isosorbide-2-aspirinate-5-nicotinate]",PASI scores,"Aldara-treated mice; 0.5% topical, relative to Vehicle-treated mice",significantly lower on days 3 (P<0.05) and 4 (P<0.01)
same,erythema score,"Aldara-treated mice; 0.5 or 5% topical, vs Vehicle","significant, and dose-dependent, reductions"
same,scaling score,"Aldara-treated mice; 0.5 or 5% topical, vs Vehicle","significant, and dose-dependent, reductions"
same,skin thickness score,"Aldara-treated mice; 0.5 or 5% topical, vs Vehicle","significant, and dose-dependent, reductions"
same,efficacy in the ALDARA model,Aldara-treated mice; 2%,effective
same,skin inflammation (PASI score),"Aldara-treated mice; higher dose (5%) topical, vs Vehicle",reduced skin inflammation on days 3-5 (P<0.01-0.001)
same,progressive development of psoriasis-like skin inflammation,"Aldara-treated mice; topical in white petroleum jelly, two separate experiments (3%; 0.5 or 5%), vs Vehicle",significantly (P<0.05-0.001) reduced
same,cumulative irritancy score (irritancy/erythema),normal healthy skin; 2%,did not cause irritancy/erythema
same,erythema/irritation,"normal healthy skin; 2% in petroleum jelly, 1 hour after application",did not cause erythema/irritation
same,temporal erythema response,normal healthy skin; 5% in petroleum jelly,resolved rapidly
same,IL-10,Primary human DC,no appreciable effect
same,number of IL-17 expressing cells,[1],inhibitory effect
same,percentage of TNF-alpha expressing cells,[1]; 50 μM,reduced
same,GM-CSF,[1]; [2],appreciable effect
same,IL-2,[1]; [2],not to have any appreciable effect
same,percentage of IFN-gamma expressing cells,[1]; in comparison to control,significantly reduced
same,chromatographic logP,physchem,4.1
same,Rf,physchem; 40% MeOH in water,0.0460
same,Rm,physchem; 40% MeOH in water,1.3168
same,Rf,physchem; 50% MeOH in water,0.1200
same,Rm,physchem; 50% MeOH in water,0.8653
same,Rf,physchem; 60% MeOH in water,0.2730
same,Rm,physchem; 60% MeOH in water,0.4254
same,Extrapolated Rm (y value),physchem; theoretical Rm at 0% organic modifier,3.0977
